Patent US11608335B2, “Somatostatin modulators and uses thereof” (CRINETICS PHARMACEUTICALS, INC., priority 2018, dated 2023)
Where two headings read alike, the source gives them in different places.

Legend:
[1] = biological target: T1, Cytochrome P450 (CYP) 2D6 enzyme (Homo sapiens, UniProt P10635); assay: Cytochrome P450 (CYP) 2D6 enzyme time dependent inhibition (TDI) assay; type: in vitro ADME; conditions: human liver microsomes
T1 construct: using pooled male and female human liver microsomes; from tissue; host or cells: pooled male and female human liver microsomes
Protocol: Example B-3: Cytochrome P450 (CYP) 2D6 Enzyme Time Dependent Inhibition (TDI) Assay Protocol
The NADPH-generating system mix was composed of potassium phosphate buffer pH 7.4 (50 mM), NADP+ (1 mM), magnesium chloride (3 mM), EDTA (1 mM), glucose-6-phosphate (5 mM), glucose-6-phosphate dehydrogenase (1 Unit/mL), human liver microsomes (0.1 mg/mL) and water. Compounds of interest in DMSO serial diluted to six different concentrations (final DMSO content of 0.1% v/v) were added to the NADPH-generating system. CYP 2D6 substrate Dextromethorphan was added at a final incubation concentration of 5 μM. The final incubation volume was 200 μL. Incubations were conducted at 37° C. for 10 minutes in a shaking water bath to evaluate the drug candidates as […] of CYP 2D6. In a separate test plate, drug candidates were pre-incubated at 37° C. for 30 minutes in a shaking water bath in NADPH-generating system mix in the absence of Dextromethorphan substrate to allow for the formation of metabolites. This plate was removed from the water bath and placed on ice for 5 minutes. Dextromethorphan substrate was then added and the plate was incubated at 37° C. for 10 minutes in a shaking water bath to determine if any metabolites formed during the 30 minute pre-incubation inhibit the CYP 2D6 enzyme. All incubations were terminated by removing 50 μL of incubation mixture and adding to 200 μL of ice cold acetonitrile containing internal standard. Following precipitation by centrifugation at 3500 rpm and 4° C. for 30 minutes, the resultant supernatant were analyzed by using a multiple reaction monitoring (MRM) LC-MS/MS method detecting for internal standard and the CYP 2D6 enzyme mediated Dextromethorphan O-demethylation metabolite Dextrorphan and IC50 values were determined.
(§1) Table E illustrates representative human liver microsomal stability and time dependent CYP2D6 inhibition (TDI) of exemplary compounds.

[2] = biological target: T2, human somatostatin receptor subtype 2 (Homo sapiens, UniProt P30874); assay: cAMP assay for SST2R (inhibition of cAMP via human SST2 receptor); type: cell-based; conditions: Table B, read-out: SST2 potency
T2 construct: expressed in transfected cells
Description: cAMP Assay Protocol for SST2R:

[3] = biological target: human somatostatin receptor subtype 5 (Homo sapiens, UniProt P35346); assay: cAMP assay for SST5R (inhibition of cAMP via human SST5 receptor); conditions: for Fold selectivity for SST5 vs SST2: SST5 over SST2, class symbols
[4] = biological target: T3, human somatostatin receptor subtype 3 (Homo sapiens, UniProt P32745); assay: cAMP assay for SST3R (inhibition of cAMP via human SST3 receptor); type: cell-based; conditions: from inhibition of cAMP via human SST5 receptor and human SST3 receptor
T3 construct: expressed in transfected cells
Description: cAMP Assay Protocol for SST3R:

[5] = biological target: T4, human somatostatin receptor subtype 4 (Homo sapiens, UniProt P31391); assay: cAMP assay for hSST4R (inhibition of cAMP via human SST4 receptor); type: cell-based; conditions: from inhibition of cAMP via human SST5 receptor and human SST4 receptor
T4 construct: expressed in transfected cells
Description: cAMP Assay Protocol hSST4R:

[6] = Liver microsomal stability assay; type: in vitro ADME; conditions: both sexes, human, pooled human liver microsomes; read-out: HLM Stability t½
Protocol: Example B-2: Liver Microsomal Stability Assay Protocol
The in vitro stabilities of compounds of interest were determined for various species using pooled male and female human, pooled male Sprague-Dawley rat, pooled male Cynomolgus monkey, and pooled male Beagle dog liver microsomes at microsomal protein concentrations of 0.5 mg/mL. Incubations were carried out in a potassium phosphate buffer (50 mM). The NADPH-generating system was composed of NADP+ (1 mM), magnesium chloride (3 mM), EDTA (1 mM), glucose-6-phosphate (5 mM) and glucose-6-phosphate dehydrogenase (1 Unit/mL) for all experiments. Compounds of interest in DMSO/acetonitrile were added to achieve a final incubation concentration of 1 μM (final DMSO content was 0.1% v/v and final acetonitrile content was 0.9%). The final incubation volume was 400 μL. Incubations were conducted at 37° C. for 0, 5, 10, 20, 40 and 60 minutes in a shaking water bath and terminated by removing 50 μL of incubation mixture and adding to 100 μL of ice cold acetonitrile containing internal standard. Following precipitation by centrifugation at 3500 rpm and 4° C. for 30 minutes, compounds of interest and internal standard were analyzed in the resultant supernatant using a multiple reaction monitoring (MRM) LC-MS/MS method. MS conditions were optimized for each analyte.
as §1

[7] = t = 0 min pre-incubation, read-out: CYP2D6 inhibition, IC50 (μM) t = 0 min
[8] = t = 30 min pre-incubation, read-out: CYP2D6 inhibition, IC50 (μM) t = 30 min
[9] = read-out: SST5 potency, inhibition of cAMP via human SST5 receptor, Table B

T3 sequence (P32745 whole entry): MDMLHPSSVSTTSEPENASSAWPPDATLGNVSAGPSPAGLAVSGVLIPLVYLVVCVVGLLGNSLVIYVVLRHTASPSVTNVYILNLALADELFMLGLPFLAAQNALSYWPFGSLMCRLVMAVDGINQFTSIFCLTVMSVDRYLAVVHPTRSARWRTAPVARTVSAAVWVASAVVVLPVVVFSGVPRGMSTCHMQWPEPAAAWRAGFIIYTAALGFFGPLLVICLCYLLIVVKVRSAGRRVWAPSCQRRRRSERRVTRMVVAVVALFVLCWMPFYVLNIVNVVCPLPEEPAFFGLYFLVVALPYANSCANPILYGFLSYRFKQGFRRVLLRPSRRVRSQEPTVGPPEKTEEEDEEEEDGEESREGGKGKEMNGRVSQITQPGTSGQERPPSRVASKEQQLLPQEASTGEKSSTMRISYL
T1 sequence (P10635 whole entry): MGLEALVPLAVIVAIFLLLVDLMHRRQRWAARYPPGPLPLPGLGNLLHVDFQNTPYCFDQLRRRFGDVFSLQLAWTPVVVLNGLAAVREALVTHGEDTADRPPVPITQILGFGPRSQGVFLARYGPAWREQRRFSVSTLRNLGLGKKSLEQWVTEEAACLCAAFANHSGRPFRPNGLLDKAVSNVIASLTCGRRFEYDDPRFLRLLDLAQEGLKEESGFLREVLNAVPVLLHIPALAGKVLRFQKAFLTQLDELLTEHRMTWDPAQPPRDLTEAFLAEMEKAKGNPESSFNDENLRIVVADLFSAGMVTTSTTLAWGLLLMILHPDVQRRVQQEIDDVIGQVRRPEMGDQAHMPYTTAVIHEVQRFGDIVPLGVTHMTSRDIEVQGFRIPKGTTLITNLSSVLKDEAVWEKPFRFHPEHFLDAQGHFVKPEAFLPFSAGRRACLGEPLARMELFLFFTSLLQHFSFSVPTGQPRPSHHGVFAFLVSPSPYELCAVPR
human somatostatin receptor subtype 5, sequence (P35346 whole entry): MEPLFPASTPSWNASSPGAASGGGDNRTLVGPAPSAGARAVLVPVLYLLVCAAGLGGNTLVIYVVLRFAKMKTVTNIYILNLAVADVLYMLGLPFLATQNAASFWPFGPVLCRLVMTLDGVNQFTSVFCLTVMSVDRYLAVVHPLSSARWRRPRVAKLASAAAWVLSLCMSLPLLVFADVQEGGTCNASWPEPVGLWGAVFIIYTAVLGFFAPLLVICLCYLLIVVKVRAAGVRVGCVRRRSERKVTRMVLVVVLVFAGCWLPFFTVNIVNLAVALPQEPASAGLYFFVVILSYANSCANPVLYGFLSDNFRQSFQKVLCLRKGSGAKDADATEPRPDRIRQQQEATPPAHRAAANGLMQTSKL
T4 sequence (P31391 whole entry): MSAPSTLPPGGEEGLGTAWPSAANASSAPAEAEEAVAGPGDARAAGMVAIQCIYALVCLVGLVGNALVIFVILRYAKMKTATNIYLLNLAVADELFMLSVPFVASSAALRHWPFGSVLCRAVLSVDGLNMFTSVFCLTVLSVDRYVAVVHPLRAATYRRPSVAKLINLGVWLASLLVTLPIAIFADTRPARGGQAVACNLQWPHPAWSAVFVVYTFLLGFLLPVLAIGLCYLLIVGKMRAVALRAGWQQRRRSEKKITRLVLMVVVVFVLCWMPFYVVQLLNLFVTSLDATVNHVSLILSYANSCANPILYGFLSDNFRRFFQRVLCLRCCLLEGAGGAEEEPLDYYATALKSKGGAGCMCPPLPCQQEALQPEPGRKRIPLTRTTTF
T2 sequence (P30874 whole entry): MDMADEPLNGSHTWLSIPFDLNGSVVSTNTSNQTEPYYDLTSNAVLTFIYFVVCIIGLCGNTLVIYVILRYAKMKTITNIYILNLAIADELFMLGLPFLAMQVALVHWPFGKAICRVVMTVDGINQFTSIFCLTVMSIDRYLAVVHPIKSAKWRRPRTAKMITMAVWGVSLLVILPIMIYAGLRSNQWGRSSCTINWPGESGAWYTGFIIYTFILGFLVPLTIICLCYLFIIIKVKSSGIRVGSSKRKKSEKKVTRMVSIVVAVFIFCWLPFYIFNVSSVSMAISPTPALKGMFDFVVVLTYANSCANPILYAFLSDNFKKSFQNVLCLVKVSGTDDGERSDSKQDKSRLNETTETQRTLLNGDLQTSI

Row | IC50 [1, 7] | IC50 [1, 8] | EC50 [2] | EC50 [3] | Fold selectivity for SST5 vs SST2 [3] | EC50 [3, 9] | Fold selectivity for SST5 vs SST3 [4] | Fold selectivity for SST5 vs SST4 [5] | half-life at 1 μM [6] | SMILES
1 | 9.5 µM | 2.3 µM | 100 to 1000 nM | < 10 nM | ++ (++=100 to 499) | < 10 nM | 6.1 fold | 1.2 fold | 77 min | Cc1cccc2nc(-c3cncc(-c4cc(F)cc(C(F)(F)F)c4)c3N3CC[C@H](N)C3)[nH]c12 [Compound 2-185, (3S)-1-{3-[3-fluoro-5-(trifluoromethyl)phenyl]-5-(4-methyl-1H-1,3-benzodiazol-2-yl)pyridin-4-yl}pyrrolidin-3-amine]
2 | 4.7 µM | 1.8 µM | 10 to 100 nM | < 10 nM | + (+=10 to 99) | < 10 nM | 5.1 fold | 1.0 fold | 173 min | Cc1cccc2nc(-c3cncc(-c4cc(F)cc(F)c4)c3N3CC[C@H](N)C3)[nH]c12 [Compound 2-201, (3S)-1-[3-(3,5-difluorophenyl)-5-(4-methyl-1H-1,3-benzodiazol-2-yl)pyridin-4-yl]pyrrolidin-3-amine]
3 | > 10 µM | > 10 µM | 100 to 1000 nM | < 10 nM | +++ (+++=≥500) | < 10 nM | 517 fold | 109 fold | > 693 min | C[C@]1(N)CCN(c2c(-c3ccnc(C#N)c3)cncc2-c2nc3c(F)cccc3[nH]2)C1 [Compound 2-162, 4-[(3S)-3-amino-3-methylpyrrolidin-1-yl]-5-(4-fluoro-1H-1,3-benzodiazol-2-yl)-[3,4′-bipyridine]-2′-carbonitrile]
4 | 6.4 µM | 3.5 µM | 100 to 1000 nM | < 10 nM | ++ (++=100 to 499) | < 10 nM | 6.7 fold | 4.0 fold | 77 min | Cc1cccc2nc(-c3cncc(-c4cc(F)cc(Cl)c4)c3N3CC[C@H](N)C3)[nH]c12 [Compound 2-183, (3S)-1-[3-(3-chloro-5-fluorophenyl)-5-(4-methyl-1H-1,3-benzodiazol-2-yl)pyridin-4-yl]pyrrolidin-3-amine]
5 | 7.6 µM | 6.5 µM | 100 to 1000 nM | < 10 nM | ++ (++=100 to 499) | < 10 nM | 6.3 fold | 0.94 fold | 53 min | Cc1cc(F)cc(-c2cncc(-c3nc4cccc(C)c4[nH]3)c2N2CC[C@H](N)C2)c1 [Compound 2-182, (3S)-1-[3-(3-fluoro-5-methylphenyl)-5-(4-methyl-1H-1,3-benzodiazol-2-yl)pyridin-4-yl]pyrrolidin-3-amine]
6 | 4.2 µM | 2.5 µM | 100 to 1000 nM | < 10 nM | ++ (++=100 to 499) | < 10 nM | 7.0 fold | 1.4 fold | 58 min | COc1cc(F)cc(-c2cncc(-c3nc4c(C)cccc4[nH]3)c2N2CC[C@H](N)C2)c1 [Compound 2-184, (3S)-1-[3-(3-fluoro-5-methoxyphenyl)-5-(4-methyl-1H-1,3-benzodiazol-2-yl)pyridin-4-yl]pyrrolidin-3-amine]
7 | 4.2 µM | 4.7 µM | 10 to 100 nM | < 10 nM | ++ (++=100 to 499) | < 10 nM | 18 fold | – | 99 min | Cc1ccnc2nc(-c3cncc(-c4ccc(F)c(Cl)c4)c3N3CC[C@](C)(N)C3)[nH]c12 [Compound 2-192, (3S)-1-[3-(3-chloro-4-fluorophenyl)-5-{7-methyl-1H-imidazo[4,5-b]pyridin-2-yl}pyridin-4-yl]-3-methylpyrrolidin-3-amine]
8 | > 10 µM | 8.7 µM | 100 to 1000 nM | < 10 nM | ++ (++=100 to 499) | < 10 nM | 16 fold | – | 33 min | Cc1cc(-c2cncc(-c3nc4nccc(C)c4[nH]3)c2N2CC[C@](C)(N)C2)ccc1F [Compound 2-188, (3S)-1-[3-(4-fluoro-3-methylphenyl)-5-{7-methyl-1H-imidazo[4,5-b]pyridin-2-yl}pyridin-4-yl]-3-methylpyrrolidin-3-amine]
9 | > 10 µM | > 10 µM | 10 to 100 nM | < 10 nM | ++ (++=100 to 499) | < 10 nM | 118 fold | – | > 693 min | Cc1ccnc2[nH]c(-c3cncc(-c4ccc(F)c(C#N)c4)c3N3CC[C@](C)(N)C3)nc12 [Compound 2-154, 5-{4-[(3S)-3-amino-3-methylpyrrolidin-1-yl]-5-{7-methyl-1H-imidazo[4,5-b]pyridin-2-yl}pyridin-3-yl}-2-fluorobenzonitrile]
10 | 5.7 µM | 5.1 µM | 100 to 1000 nM | < 10 nM | +++ (+++=≥500) | < 10 nM | 24 fold | – | 139 min | Cc1ccnc2nc(-c3cncc(-c4ccc(F)c(C(F)(F)F)c4)c3N3CC[C@](C)(N)C3)[nH]c12 [Compound 2-191, (3S)-1-{3-[4-fluoro-3-(trifluoromethyl)phenyl]-5-{7-methyl-1H-imidazo[4,5-b]pyridin-2-yl}pyridin-4-yl}-3-methylpyrrolidin-3-amine]
